In paper PMC5927461, “Activation of host transient receptor potential (TRP) channels by praziquantel stereoisomers” (PLoS Neglected Tropical Diseases, 2018):

Legend:
[1] = tested on: mouse mesenteric arteries; assay: Wire myography, mesenteric artery strips precontracted with high K+ (KPSS)
[2] = molecular target: T1, hTRPA1 (Homo sapiens, UniProt O75762); assay: TRP channel panel primary screen (FLIPR Calcium 5, stable HEK line); format: cell-based; conditions: 0.3-300μM; effects over the micromolar range
Experimental: (§1) ±PZQ, (R)-PZQ and (S)-PZQ were screened against a panel of 17 human TRP channels (SB Drug Discovery, Glasgow). For all hTRPs, except for TRPM5, individual channel constructs were stably expressed in HEK cell lines. TRMP5 was expressed in a stable CHO cell line. In preparation for the assays, cells were trypsinized, counted and seeded (50,000 cells/well) in black, clear-bottomed 96 well plates and incubated overnight. The following day, cells were loaded with a fluorescent indicator (FLIPR Calcium 5 Assay kit for TRPA1, TRPV1, TRPV2, TRPV3, TRPV4, TRPV5, TRPC1, TRPM2, TRPM3 and TRPM8, or a membrane potential dye (FLIPR Membrane Potential Red Assay Kit for TRPC3, TRPC4, TRPC5, TRPC6, TRPC7, TRPM4 and TRPM5) prepared according to the manufacturer’s instructions in HEPES buffered Hank’s balanced salt solution (HBSS). Dye solution (10μl) was added to appropriate wells and incubated at 37°C for 1 hour. All assays were performed at room temperature. Compounds were tested at 0.3, 1, 3, 10, 30, 100μM and 300μM in triplicate in both agonist and antagonist mode to determine EC50 and IC50 values, which were compared with reference compounds. Compounds were screened at a final DMSO concentration of 0.5%. Plates were screened using a Flexstation (Molecular Devices, FX01138), monitoring fluorescence values every ~1.52 seconds. For ‘agonist mode’ testing, 10μl of the appropriate test compound, or standard agonist, was added after 20 seconds and fluorescence monitored for 2 minutes at λex = 485nm, λem = 525nm for Ca^2+ imaging and λex = 530nm, λem = 565nm for membrane potential measurements. For ‘antagonist mode’ testing, test compounds and standard inhibitors were added to appropriate wells and incubated for 10 minutes at room temperature prior to addition of standard agonist compound.

[3] = molecular target: T2, hTRPM8 (Homo sapiens, UniProt Q7Z2W7); assay: as above; format: cell-based; conditions: 0.3-300μM; effects over the micromolar range
Experimental: as §1

[4] = molecular target: T1, hTRPA1; assay: Single cell confocal Ca2+ imaging (fluo-4) in transfected HEK293 cells; format: cell-based; set-up: host or cells: HEK293 (ATCC CRL-1573.3), transient; conditions: 100μM
Description: (§2) Human TRPM8 cDNA was a VersaClone from R&D Systems (RDC0188). Plasmids encoding human TRPA1 and human TRPV1 cDNA were purchased from DNASU plasmid repository (HsCD00080227 and HsCD00081472, respectively). The TRP channel coding sequences were subcloned into pCS2+ to introduce a COOH-term myc tag using the InFusion HD method (Clontech), HindIII/XhoI restriction enzymes (NEB) and the following primers: TRPM8 F–TGGGGACGTCGGAGC-aagctt-[…]; TRPM8 R–AAATCGATGGGATGC-ctcgag-[…]; TRPA1 F-GGACGTCGGAGC-aagctt- atgaagcgcagcctgagg; TRPA1 R-TCGATGGGATGC-ctcgag-[…]; TRPV1 F–GGACGTCGGAGC-aagctt-[…]; TRPV1 R-TCGATGGGATGC-ctcgag-cttctccccggaagcgg (where upper case specifies vector-specific sequences, italics indicate restriction sites, and lower case indicates TRP channel specific sequences). Primers are listed in a 5’ to 3’ orientation.
(§3) HEK293 cells (ATCC CRL-1573.3) were cultured in DMEM supplemented with 10% fetal bovine serum (FBS), penicillin (100 units/ml), streptomycin (100 μg/ml), and L-glutamine (290 μg/ml). Cells were transiently transfected (Lipofectamine LTX, Thermo Fisher) at a density of 2x10^6 cells per T-25 cell-culture flask with TRP channel cDNA. For Ca^2+ imaging assays, HEK293 cells were seeded onto 8-chambered coverglass slides (Thermo Fisher, 115411PK), at a density of 1x10^4 cells one day prior to imaging. Cells were washed twice with HBSS, and incubated with fluo-4-AM (4μM), pluronic F127 (0.4%) and probenecid (2.5mM) for 25 minutes at room temperature. Cells were then washed twice with HBSS, and left at room temperature (30 minutes) for de-esterification. Dishes were mounted on an Olympus IX81 microscope and fluorescence changes (λex = 488nM, λem = 513±15nm bandpass filter) monitored using a Yogokawa spinning disk confocal (CSU-X-M1N) and an Andor iXon Ultra 888 EMCCD camera.

[5] = molecular target: T2, hTRPM8; assay: as above; format: cell-based; set-up: host or cells: HEK293 (ATCC CRL-1573.3), transient; conditions: for EC50: confocal imaging, Fig 4E, read-out: EC50, Ca2+ mobilization in TRPM8 expressing cells; for cytoplasmic Ca2+ signal in TRPM8 expressing cells: menthol 300μM, ±PZQ 100μM, (R)-PZQ or (S)-PZQ 50μM
Description: as §2, §3

T1 sequence (O75762 whole entry): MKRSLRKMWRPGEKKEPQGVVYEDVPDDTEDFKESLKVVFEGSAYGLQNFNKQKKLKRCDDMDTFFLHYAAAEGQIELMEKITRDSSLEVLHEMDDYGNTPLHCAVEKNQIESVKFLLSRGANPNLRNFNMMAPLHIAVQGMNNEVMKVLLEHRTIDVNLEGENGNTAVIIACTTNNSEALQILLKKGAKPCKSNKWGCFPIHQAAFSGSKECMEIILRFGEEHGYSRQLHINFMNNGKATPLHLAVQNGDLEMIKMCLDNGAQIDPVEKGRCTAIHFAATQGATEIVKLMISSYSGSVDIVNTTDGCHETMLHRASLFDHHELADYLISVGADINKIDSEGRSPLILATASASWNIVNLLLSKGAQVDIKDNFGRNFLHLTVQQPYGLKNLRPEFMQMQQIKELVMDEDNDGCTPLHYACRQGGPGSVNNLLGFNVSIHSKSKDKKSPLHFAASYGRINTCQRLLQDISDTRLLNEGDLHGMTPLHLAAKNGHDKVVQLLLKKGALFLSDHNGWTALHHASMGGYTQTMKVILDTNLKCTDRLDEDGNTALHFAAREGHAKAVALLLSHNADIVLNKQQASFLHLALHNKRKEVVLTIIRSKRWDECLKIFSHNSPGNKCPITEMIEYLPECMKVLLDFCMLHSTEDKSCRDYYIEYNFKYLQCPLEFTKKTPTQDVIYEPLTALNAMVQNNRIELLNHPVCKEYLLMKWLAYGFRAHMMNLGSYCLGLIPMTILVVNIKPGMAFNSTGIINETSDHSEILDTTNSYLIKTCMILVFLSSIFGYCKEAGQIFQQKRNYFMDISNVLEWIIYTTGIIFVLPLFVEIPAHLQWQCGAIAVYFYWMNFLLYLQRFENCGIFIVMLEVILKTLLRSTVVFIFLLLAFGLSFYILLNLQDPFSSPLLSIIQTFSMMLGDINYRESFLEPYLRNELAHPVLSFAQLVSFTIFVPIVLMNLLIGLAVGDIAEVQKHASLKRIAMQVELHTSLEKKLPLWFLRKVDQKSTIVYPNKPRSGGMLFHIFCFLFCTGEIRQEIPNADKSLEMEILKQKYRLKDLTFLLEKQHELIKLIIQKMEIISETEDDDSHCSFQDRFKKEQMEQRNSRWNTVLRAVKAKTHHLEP
T2 sequence (Q7Z2W7 whole entry): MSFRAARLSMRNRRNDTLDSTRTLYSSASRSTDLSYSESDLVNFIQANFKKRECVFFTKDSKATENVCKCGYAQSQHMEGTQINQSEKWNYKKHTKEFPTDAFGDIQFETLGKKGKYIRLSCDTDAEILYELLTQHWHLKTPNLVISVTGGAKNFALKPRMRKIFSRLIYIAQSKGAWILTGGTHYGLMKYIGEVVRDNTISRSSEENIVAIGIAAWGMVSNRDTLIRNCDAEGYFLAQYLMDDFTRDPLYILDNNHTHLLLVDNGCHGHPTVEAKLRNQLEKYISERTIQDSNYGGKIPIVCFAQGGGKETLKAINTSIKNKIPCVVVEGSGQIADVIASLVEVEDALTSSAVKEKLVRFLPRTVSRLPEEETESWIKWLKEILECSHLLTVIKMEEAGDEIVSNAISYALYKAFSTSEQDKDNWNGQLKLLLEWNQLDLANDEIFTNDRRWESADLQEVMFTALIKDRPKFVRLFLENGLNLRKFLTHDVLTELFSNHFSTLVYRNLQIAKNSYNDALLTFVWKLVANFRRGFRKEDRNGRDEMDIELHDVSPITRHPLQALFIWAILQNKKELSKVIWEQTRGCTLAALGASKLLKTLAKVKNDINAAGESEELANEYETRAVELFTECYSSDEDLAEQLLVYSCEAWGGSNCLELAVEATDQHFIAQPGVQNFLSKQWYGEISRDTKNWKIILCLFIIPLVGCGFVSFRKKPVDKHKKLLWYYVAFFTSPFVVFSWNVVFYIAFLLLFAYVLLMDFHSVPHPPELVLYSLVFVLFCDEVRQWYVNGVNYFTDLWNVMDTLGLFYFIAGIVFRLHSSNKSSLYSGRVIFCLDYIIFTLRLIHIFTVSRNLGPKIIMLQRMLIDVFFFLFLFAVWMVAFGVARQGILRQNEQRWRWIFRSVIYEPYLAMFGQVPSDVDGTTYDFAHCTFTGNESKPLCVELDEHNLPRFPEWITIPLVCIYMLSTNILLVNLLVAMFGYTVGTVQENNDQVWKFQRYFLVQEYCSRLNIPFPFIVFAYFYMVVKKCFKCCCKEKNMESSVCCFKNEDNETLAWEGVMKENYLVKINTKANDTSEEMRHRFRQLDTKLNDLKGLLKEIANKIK

Compound | relaxation of the KPSS-contracted vessel ([1]; 100μM, peak relaxation) | activity at hTRPA1 in primary screen [2] | activity at hTRPM8 in primary screen [3] | Ca2+ response in hTRPA1 expressing cells [4] | EC50 [5] | cytoplasmic Ca2+ signal in TRPM8 expressing cells [5] | change in tension of KPSS-precontracted vessels ([1]; 50μM, bath application during KPSS-evoked contraction) | extent of relaxation ([1]; WT tissue, 50μM)
O=C(C1CCCCC1)N1CC(=O)N2CCc3ccccc3C2C1 (racemic) [±PZQ, praziquantel] | 61±9% | displayed activity | displayed activity | elicited Ca^2+ responses | 19 ± 5 µM | evoked cytoplasmic Ca^2+ signals | – | –
O=C(C1CCCCC1)N1CC(=O)N2CCc3ccccc3[C@H]2C1 [(S)-PZQ] | – | activated | sole active enantiomer | activation of hTRPA1 | 19.2 ± 5.3 µM | evoked cytoplasmic Ca^2+ signals | decrease in tension | ~ 30 % of peak KPSS-evoked tone
